Results as given in US7854753B2, “Photokinetic delivery of biologically active substances using pulsed incoherent light” (Photokinetix, Inc., priority 2002, dated 2010).

Experiments:
[1] = volume of water for 1 g; cited from earlier work
[2] = Franz skin diffusion cell permeation (percutaneous absorption) under ambient, natural or pulsed incoherent LED light; settings: for Permeation Dark: ambient light absent; for Ctrl / Ctrl-TiO2: Table 8 (405 nm series); for Ctrl: ambient light only; for Ctrl-TiO2 / Effect of 2% (w/w) TiO2 on permeation: ambient light; for Ctrl-TiO2: 2% TiO2; for Ctrl-TiO2/1.7 / Ctrl-TiO2/9.7 / Ctrl-TiO2/24: Table 8, 405 nm series; for Ctrl-TiO2/1.7: 2% TiO2, 1.7 cps; for Ctrl-TiO2/9.7: 2% TiO2, 9.7 cps; for Ctrl-TiO2/24: 2% TiO2, 24 cps; for 405/1.7 / 405/9.7 / 405/24: Table 8; for 405/1.7 / Permeation 1.7 cps: 1.7 cps; for 405/9.7 / Permeation 9.7 cps: 9.7 cps; for 405/24: 24 cps; for Permeation Ctrl: ambient cool fluorescent light only, 260-750 nm, 120 cps; for Permeation Ctrl-TiO2: ambient fluorescent light, sample with 2% (w/w) rutile TiO2; for Effect of 2% (w/w) TiO2 on permeation: FIG. 4; for Permeation 350 / Permeation 405: 75% duty cycle

Structure (SMILES): Cc1ncc(CO)c(CO)c1O [Compound 5, Pyridoxine]
- Water Solubility (1 g) [1]: 4.5 mL
- Permeation Dark ([2]; Dark control): 261.30 μg/0.64 cm^2/25 hrs
- Ctrl [2]: 32.90
- Ctrl-TiO2 [2]: 806.25
- Ctrl-TiO2/1.7 [2]: 537.60
- Ctrl-TiO2/9.7 [2]: 862.75
- Ctrl-TiO2/24 [2]: 0.00
- 405/1.7 ([2]; 405 nm): 179.38
- 405/9.7 ([2]; 405 nm): 0.00
- 405/24 ([2]; 405 nm): 187.81
- Permeation Ctrl [2]: 32.90 μg/0.64 cm^2/25 hrs
- Permeation Ctrl-TiO2 [2]: 806.20 μg/0.64 cm^2/25 hrs
- Effect of 2% (w/w) TiO2 on permeation [2]: significant effect

Structure (SMILES): O=C(O)c1cccnc1 [Compound 6, Nicotinic acid]
- Water Solubility (1 g) [1]: 60 mL
- Permeation Dark ([2]; Dark control): 976.30 μg/0.64 cm^2/25 hrs
- Ctrl [2]: 0.00
- Ctrl-TiO2 [2]: 1371.00
- Permeation Ctrl [2]: 0.00 μg/0.64 cm^2/25 hrs
- Permeation Ctrl-TiO2 [2]: 1371.00 μg/0.64 cm^2/25 hrs
- Effect of 2% (w/w) TiO2 on permeation [2]: significant effect

Structure (SMILES): Cn1cnc2c1c(=O)[nH]c(=O)n2C [Compound 7, Theobromine]
- Water Solubility (1 g) [1]: 2000 mL

Structure (SMILES): Cn1c(=O)c2[nH]cnc2n(C)c1=O [Compound 8, Theophylline]
- Water Solubility (1 g) [1]: 120 mL

Structure (SMILES): NC(=O)c1cccnc1 [Compound 10, Nicotinamide]
- Water Solubility (1 g) [1]: 1 mL
- Permeation Dark ([2]; Dark control): 543.70 μg/0.64 cm^2/25 hrs
- Ctrl [2]: 42.72
- Ctrl-TiO2 [2]: 851.83
- Ctrl-TiO2/1.7 [2]: 668.31
- Ctrl-TiO2/9.7 [2]: 1387.33
- Ctrl-TiO2/24 [2]: 0.00
- 405/1.7 ([2]; 405 nm): 26.22
- 405/9.7 ([2]; 405 nm): 32.69
- 405/24 ([2]; 405 nm): 0.00
- Permeation Ctrl [2]: 42.72 μg/0.64 cm^2/25 hrs
- Permeation Ctrl-TiO2 [2]: 851.80 μg/0.64 cm^2/25 hrs
- Effect of 2% (w/w) TiO2 on permeation [2]: significant effect

Structure (SMILES): C[C@]12CCC(=O)C=C1CC[C@@H]1[C@@H]2CC[C@@]2(C)[C@H]1CC[C@]2(C)O [Compound 17, Methyl Testosterone]
- Water Solubility (1 g) [1]: Insoluble
- Permeation 350 ([2]; 350 nm LED, pulse rate 24 cps): 153.25 μg/0.64 cm^2/25 hrs
- Permeation 1.7 cps ([2]; 350 nm): 12.84 μg/0.64 cm^2/25 hrs
- Permeation 9.7 cps ([2]; 350 nm): 29.57 μg/0.64 cm^2/25 hrs
- Permeation 405 ([2]; 405 nm LED, pulse rate 24 cps): 25.37 μg/0.64 cm^2/25 hrs
- Permeation Dark ([2]; Dark control): 0.00 μg/0.64 cm^2/25 hrs
- Permeation Ctrl [2]: 0.00 μg/0.64 cm^2/25 hrs
- Permeation Ctrl-TiO2 [2]: 0.00 μg/0.64 cm^2/25 hrs

Structure (SMILES): CC(=O)[C@H]1CC[C@H]2[C@@H]3CCC4=CC(=O)CC[C@]4(C)[C@H]3CC[C@]12C [Compound 18, Progesterone]
- Water Solubility (1 g) [1]: Insoluble
- Permeation 350 ([2]; 350 nm LED, pulse rate 24 cps): 149.91 μg/0.64 cm^2/25 hrs
- Permeation 1.7 cps ([2]; 350 nm): 2.58 μg/0.64 cm^2/25 hrs
- Permeation 9.7 cps ([2]; 350 nm): 2.80 μg/0.64 cm^2/25 hrs
- Permeation 405 ([2]; 405 nm LED, pulse rate 24 cps): 6.19 μg/0.64 cm^2/25 hrs
- Permeation Dark ([2]; Dark control): 0.00 μg/0.64 cm^2/25 hrs
- Permeation Ctrl [2]: 0.00 μg/0.64 cm^2/25 hrs
- Permeation Ctrl-TiO2 [2]: 0.00 μg/0.64 cm^2/25 hrs

Structure (SMILES): C[C@@H]1[C@H](O)[C@@H](C)/C=C/C=C/C=C/C=C/C=C/C=C/C=C/[C@H](O[C@@H]2O[C@H](C)[C@@H](O)[C@H](N)[C@@H]2O)C[C@@H]2O[C@](O)(C[C@@H](O)C[C@@H](O)[C@H](O)CC[C@@H](O)C[C@@H](O)CC(=O)O[C@H]1C)C[C@H](O)[C@H]2C(=O)O [Compound 21, Amphotericin B]
- % Permeation (percent increase or decrease vs dark baseline, equation 1) ([2]; 350 + TiO2, 8 cps vs Dark-TiO2): 49.51%
- % Permeation (percent increase or decrease vs dark baseline, equation 1) ([2]; 350 + TiO2, 24 cps vs Dark-TiO2): 71.32%
- % Permeation (percent increase or decrease vs dark baseline, equation 1) ([2]; 350 + TiO2, 80 cps vs Dark-TiO2): 18.24%
- Permeation ([2]; 350 + TiO2, pulse rate 8 cps): 1.54 μg/cm^2/24 hrs
- Permeation ([2]; 350 + TiO2, pulse rate 24 cps): 2.33 μg/cm^2/24 hrs
- Permeation ([2]; 350 + TiO2, pulse rate 80 cps): 2.01 μg/cm^2/24 hrs
- Permeation ([2]; 350 nm LED, pulse rate 8 cps): 1.19 μg/cm^2/24 hrs
- Permeation ([2]; 350 nm LED, pulse rate 24 cps): 3.35 μg/cm^2/24 hrs
- Permeation ([2]; 350 nm LED, pulse rate 80 cps): 2.81 μg/cm^2/24 hrs
- % Permeation (percent increase or decrease vs dark baseline, equation 1) ([2]; 350 nm, 8 cps vs Dark): 60.81%
- % Permeation (percent increase or decrease vs dark baseline, equation 1) ([2]; 350 nm, 24 cps vs Dark): 66.67%
- % Permeation (percent increase or decrease vs dark baseline, equation 1) ([2]; 350 nm, 80 cps vs Dark): −11.36%
- % Permeation (percent increase or decrease vs dark baseline, equation 1) ([2]; 390 + TiO2, 8 cps vs Dark-TiO2): 91.26%
- % Permeation (percent increase or decrease vs dark baseline, equation 1) ([2]; 390 + TiO2, 24 cps vs Dark-TiO2): 48.53%
- % Permeation (percent increase or decrease vs dark baseline, equation 1) ([2]; 390 + TiO2, 80 cps vs Dark-TiO2): 241.18%
- Permeation ([2]; 390 + TiO2, pulse rate 8 cps): 1.97 μg/cm^2/24 hrs
- Permeation ([2]; 390 + TiO2, pulse rate 24 cps): 2.02 μg/cm^2/24 hrs
- Permeation ([2]; 390 + TiO2, pulse rate 80 cps): 5.80 μg/cm^2/24 hrs
- Permeation ([2]; 390 nm LED, pulse rate 8 cps): 1.11 μg/cm^2/24 hrs
- Permeation ([2]; 390 nm LED, pulse rate 24 cps): 1.88 μg/cm^2/24 hrs
- Permeation ([2]; 390 nm LED, pulse rate 80 cps): 3.94 μg/cm^2/24 hrs
- % Permeation (percent increase or decrease vs dark baseline, equation 1) ([2]; 390 nm, 8 cps vs Dark): 50.00%
- % Permeation (percent increase or decrease vs dark baseline, equation 1) ([2]; 390 nm, 24 cps vs Dark): −6.47%
- % Permeation (percent increase or decrease vs dark baseline, equation 1) ([2]; 390 nm, 80 cps vs Dark): 24.29%
- % Permeation (percent increase or decrease vs dark baseline, equation 1) ([2]; 405 + TiO2, 8 cps vs Dark-TiO2): 33.01%
- % Permeation (percent increase or decrease vs dark baseline, equation 1) ([2]; 405 + TiO2, 24 cps vs Dark-TiO2): 817.65%
- % Permeation (percent increase or decrease vs dark baseline, equation 1) ([2]; 405 + TiO2, 80 cps vs Dark-TiO2): 180.59%
- Permeation ([2]; 405 + TiO2, pulse rate 8 cps): 1.37 μg/cm^2/24 hrs
- Permeation ([2]; 405 + TiO2, pulse rate 24 cps): 12.48 μg/cm^2/24 hrs
- Permeation ([2]; 405 + TiO2, pulse rate 80 cps): 4.77 μg/cm^2/24 hrs
- Permeation ([2]; 405 nm LED, pulse rate 8 cps): 1.26 μg/cm^2/24 hrs
- Permeation ([2]; 405 nm LED, pulse rate 24 cps): 1.83 μg/cm^2/24 hrs
- Permeation ([2]; 405 nm LED, pulse rate 80 cps): 7.23 μg/cm^2/24 hrs
- % Permeation (percent increase or decrease vs dark baseline, equation 1) ([2]; 405 nm, 8 cps vs Dark): 70.27%
- % Permeation (percent increase or decrease vs dark baseline, equation 1) ([2]; 405 nm, 24 cps vs Dark): −8.96%
- % Permeation (percent increase or decrease vs dark baseline, equation 1) ([2]; 405 nm, 80 cps vs Dark): 129.65%
- % Permeation (percent increase or decrease vs dark baseline, equation 1) ([2]; 450 + TiO2, 8 cps vs Dark-TiO2): 110.68%
- % Permeation (percent increase or decrease vs dark baseline, equation 1) ([2]; 450 + TiO2, 24 cps vs Dark-TiO2): 8.82%
- % Permeation (percent increase or decrease vs dark baseline, equation 1) ([2]; 450 + TiO2, 80 cps vs Dark-TiO2): 198.82%
- Permeation ([2]; 450 + TiO2, pulse rate 8 cps): 2.17 μg/cm^2/24 hrs
- Permeation ([2]; 450 + TiO2, pulse rate 24 cps): 1.48 μg/cm^2/24 hrs
- Permeation ([2]; 450 + TiO2, pulse rate 80 cps): 5.08 μg/cm^2/24 hrs
- Permeation ([2]; 450 nm LED, pulse rate 8 cps): 0.80 μg/cm^2/24 hrs
- Permeation ([2]; 450 nm LED, pulse rate 24 cps): 1.19 μg/cm^2/24 hrs
- Permeation ([2]; 450 nm LED, pulse rate 80 cps): 9.26 μg/cm^2/24 hrs
- % Permeation (percent increase or decrease vs dark baseline, equation 1) ([2]; 450 nm, 8 cps vs Dark): 8.11%
- % Permeation (percent increase or decrease vs dark baseline, equation 1) ([2]; 450 nm, 24 cps vs Dark): −40.80%
- % Permeation (percent increase or decrease vs dark baseline, equation 1) ([2]; 450 nm, 80 cps vs Dark): 192.11%
- Permeation ([2]; Dark control, 8 cps series): 0.74 μg/cm^2/24 hrs
- Permeation ([2]; Dark control, 24 cps series): 2.01 μg/cm^2/24 hrs
- Permeation ([2]; Dark control, 80 cps series): 3.17 μg/cm^2/24 hrs
- Permeation ([2]; Dark-TiO2 control (2% TiO2), 8 cps series): 1.03 μg/cm^2/24 hrs
- Permeation ([2]; Dark-TiO2 control (2% TiO2), 24 cps series): 1.36 μg/cm^2/24 hrs
- Permeation ([2]; Dark-TiO2 control (2% TiO2), 80 cps series): 1.70 μg/cm^2/24 hrs
- Permeation ([2]; Day (natural daylight, not pulsed), control of the 8 cps series): 0.84 μg/cm^2/24 hrs
- Permeation ([2]; Day (natural daylight, not pulsed), control of the 24 cps series): 1.59 μg/cm^2/24 hrs
- Permeation ([2]; Day (natural daylight, not pulsed), control of the 80 cps series): 2.52 μg/cm^2/24 hrs
- % Permeation (percent increase or decrease vs dark baseline, equation 1) ([2]; Day vs Dark, 8 cps series): 13.51%
- % Permeation (percent increase or decrease vs dark baseline, equation 1) ([2]; Day vs Dark, 24 cps series): −20.90%
- % Permeation (percent increase or decrease vs dark baseline, equation 1) ([2]; Day vs Dark, 80 cps series): −20.50%
- Permeation ([2]; Day-TiO2 (natural daylight, 2% TiO2, not pulsed), control of the 8 cps series): 0.70 μg/cm^2/24 hrs
- Permeation ([2]; Day-TiO2 (natural daylight, 2% TiO2, not pulsed), control of the 24 cps series): 0.89 μg/cm^2/24 hrs
- Permeation ([2]; Day-TiO2 (natural daylight, 2% TiO2, not pulsed), control of the 80 cps series): 4.09 μg/cm^2/24 hrs
- % Permeation (percent increase or decrease vs dark baseline, equation 1) ([2]; Day-TiO2 vs Dark-TiO2, 8 cps series): −32.04%
- % Permeation (percent increase or decrease vs dark baseline, equation 1) ([2]; Day-TiO2 vs Dark-TiO2, 24 cps series): −34.56%
- % Permeation (percent increase or decrease vs dark baseline, equation 1) ([2]; Day-TiO2 vs Dark-TiO2, 80 cps series): 140.59%
